The values that follow are results of earlier work, collected in patent US20150218090A1, “DOSAGE REGIMEN FOR AN S1P RECEPTOR MODULATOR OR AGONIST” (NOVARTIS AG, priority 2011, published 2015).

For the series the following is noted: administration of 1.25 mg of FTY720; healthy subjects.

For the molecule `CCCCCCCCc1ccc(CCC(N)(CO)CO)cc1` [FTY720, 2-amino-2-[2-(4-octylphenyl)ethyl]propane-1,3-diol], the “decrease in heart rate” value is listed as “approximately 8 beats/min”.
